For one experiment, the system named is Microsporum canis. Put plainly: Antimycotic in vitro activity, serial dilution test, Microsporum canis. It counts as cell-based. The following applies: Sabouraud's test medium, 28-37° C., 96 hours. The protocol:
(§1) The in vitro tests were carried out in the serial dilution test using inocula of microorganisms of approximately 5×10^3 to 10^4 microorganisms/ml of substrate. The nutrient medium used was (a) for dermatophytes and Blastomycetes: Sabouraud's test medium (b) for yeasts: meat extract/dextrose broth. The incubation temperature was 28° C. to 37° C., and the incubation period was 24 to 96 hours with yeasts and 96 hours with dermatophytes and Blastomycetes.

Another experiment deals with Candida albicans. The experiment in a line: Antimycotic in vitro activity, serial dilution test, Candida albicans. It counts as cell-based. The following applies: meat extract/dextrose broth, 28-37° C., 24 to 96 hours. On the procedure:
as §1

The next experiment concerns Trichophyton mentagr. Put plainly: Antimycotic in vitro activity, serial dilution test, Trichophyton mentagr. The class given is cell-based, Trichophyton mentagrophytes. The following applies: Sabouraud's test medium, 28-37° C., 96 hours. The protocol:
as §1

The test system of experiment [1] is dermatophytes, Blastomycetes and yeasts. Put plainly: Antimycotic in vitro activity, serial dilution test, overall comparison. The class given is cell-based. The protocol: as §1
For a further experiment, the system named is Aspergillus fumigatus. Put plainly: Antimycotic in vitro activity, serial dilution test, Aspergillus fumigatus. It counts as cell-based. Conditions: 28-37° C. The protocol: as §1
Another experiment has as its system Torulopsis glabrata. The experiment in a line: Antimycotic in vitro activity, serial dilution test, Torulopsis glabrata. It counts as cell-based. Conditions: Nakaseomyces glabratus; 28-37° C., 24 to 96 hours. On the procedure:
as §1

Values after ≈ are worked out from the molar mass of the structure shown.

Consider `OC(CCc1ccc(OC(F)(F)F)cc1)(Cn1cncn1)C1(Cl)CC1` (stereo not shown) [Compound I-24], for which the MIC against Microsporum canis was 4 µg/mL (≈ 10.6 µM); in the experiment on Candida albicans, 16 µg/mL (≈ 42.6 µM); against Trichophyton mentagr. it was less than 1 µg/mL; in the experiment with Aspergillus fumigatus it was less than 1 µg/mL; in the experiment on Torulopsis glabrata, 4 µg/mL (≈ 10.6 µM). The “antimycotic activity compared with compounds (A) and (B)” value in experiment [1] was “better antimycotic activity than the compounds (A) and (B)”.

On to `OC(CCc1ccc(-c2ccccc2)cc1)(Cn1cncn1)C1(Cl)CC1` (stereo not shown) [Compound I-25], for which the MIC in the experiment with Microsporum canis is 2 µg/mL (≈ 5.44 µM); in the experiment with Candida albicans, less than 1 µg/mL; with Trichophyton mentagr., less than 1 µg/mL; with Aspergillus fumigatus, less than 1 µg/mL; against Torulopsis glabrata, 2 µg/mL (≈ 5.44 µM). Also, in experiment [1], the “antimycotic activity compared with compounds (A) and (B)” value was “better antimycotic activity than the compounds (A) and (B)”.

Regarding `CCCSC1(C(O)(/C=C/c2ccc(Cl)cc2Cl)Cn2cncn2)CC1` (stereo not drawn) [Compound I-3, trans-4-(2,4-dichlorophenyl)-2-(1-propylmercaptocyclopropyl)1-(1,2,4-triazol-1-yl)-but-3-en-2-ol], the MIC in the experiment on Candida albicans is 4 µg/mL (≈ 10 µM); with Trichophyton mentagr., 8 µg/mL (≈ 20.1 µM); against Aspergillus fumigatus, 16 µg/mL (≈ 40.2 µM); against Torulopsis glabrata, 4 µg/mL (≈ 10 µM). Also, in experiment [1], the “antimycotic activity compared with compounds (A) and (B)” value was “better antimycotic activity than the compounds (A) and (B)”.

Consider `OC(CCc1ccccc1)(Cn1cncn1)C1(Cl)CC1` (stereo not shown) [Compound I-23], for which the MIC against Microsporum canis was 2 µg/mL (≈ 6.85 µM); with Candida albicans it was 4 µg/mL (≈ 13.7 µM); against Trichophyton mentagr., less than 1 µg/mL; against Aspergillus fumigatus, less than 1 µg/mL; in the experiment with Torulopsis glabrata it was 8 µg/mL (≈ 27.4 µM). Moreover, in experiment [1], the “antimycotic activity compared with compounds (A) and (B)” value is “better antimycotic activity than the compounds (A) and (B)”.

For `CC(C)(CCC(O)(Cn1cncn1)C1(Cl)CC1)Cc1ccc(Cl)cc1` (stereo not shown) [Compound I-17], the MIC was less than 1 µg/mL in the experiment on Candida albicans, 2 µg/mL (≈ 5.23 µM) in the experiment with Trichophyton mentagr., 4 µg/mL (≈ 10.5 µM) against Aspergillus fumigatus and 2 µg/mL (≈ 5.23 µM) against Torulopsis glabrata. Further, the “antimycotic activity compared with compounds (A) and (B)” value in experiment [1] is “better antimycotic activity than the compounds (A) and (B)”.

Regarding `OC(C=Cc1ccccc1)(Cn1cncn1)C1(Cl)CC1` (stereo not shown) [Compound I-32], the MIC is 4 µg/mL (≈ 13.8 µM) in the experiment with Microsporum canis; 4 µg/mL (≈ 13.8 µM) in the experiment on Candida albicans; less than 1 µg/mL in the experiment on Trichophyton mentagr.; 2 µg/mL (≈ 6.9 µM) in the experiment on Aspergillus fumigatus; 8 µg/mL (≈ 27.6 µM) in the experiment on Torulopsis glabrata. Besides, in experiment [1], the “antimycotic activity compared with compounds (A) and (B)” value is “better antimycotic activity than the compounds (A) and (B)”.

For `Cc1ccc(CCC(O)(Cn2cncn2)C2(Cl)CC2)cc1` (stereo not shown) [Compound I-20], the MIC against Microsporum canis was 2 µg/mL (≈ 6.54 µM); with Candida albicans it was 4 µg/mL (≈ 13.1 µM); against Trichophyton mentagr. it was less than 1 µg/mL; against Aspergillus fumigatus, less than 1 µg/mL; against Torulopsis glabrata it was 2 µg/mL (≈ 6.54 µM). For the same compound, the “antimycotic activity compared with compounds (A) and (B)” value in experiment [1] is “better antimycotic activity than the compounds (A) and (B)”.

With `CC(C)(C)C=CC(O)(Cn1cncn1)C1(Cl)CC1` (stereo not shown) [Compound I-38], the MIC against Microsporum canis was 4 µg/mL (≈ 14.8 µM); against Candida albicans it was 4 µg/mL (≈ 14.8 µM); with Trichophyton mentagr., less than 1 µg/mL; in the experiment on Aspergillus fumigatus, 8 µg/mL (≈ 29.7 µM); against Torulopsis glabrata, 4 µg/mL (≈ 14.8 µM). Further, the “antimycotic activity compared with compounds (A) and (B)” value in experiment [1] was “better antimycotic activity than the compounds (A) and (B)”.

In the case of `OC(C=CC1CCCCC1)(Cn1cncn1)C1(Cl)CC1` (stereo not shown) [Compound I-39], the MIC with Candida albicans was found to be 16 µg/mL (≈ 54.1 µM); with Trichophyton mentagr., 2 µg/mL (≈ 6.76 µM); against Aspergillus fumigatus, 2 µg/mL (≈ 6.76 µM); in the experiment on Torulopsis glabrata, 16 µg/mL (≈ 54.1 µM). Also, in experiment [1], the “antimycotic activity compared with compounds (A) and (B)” value was “better antimycotic activity than the compounds (A) and (B)”.

With `CC(C)SC1(C(O)(CCc2ccc(Cl)cc2)Cn2cncn2)CC1` (stereo not shown) [Compound I-8], the MIC amounted to 8 µg/mL (≈ 21.9 µM) against Candida albicans, 2 µg/mL (≈ 5.47 µM) against Trichophyton mentagr., 4 µg/mL (≈ 10.9 µM) in the experiment with Aspergillus fumigatus and 32 µg/mL (≈ 87.4 µM) in the experiment with Torulopsis glabrata. For the same compound, the “antimycotic activity compared with compounds (A) and (B)” value in experiment [1] is “better antimycotic activity than the compounds (A) and (B)”.

Consider `CCSC1(C(O)(CCc2ccc(Cl)cc2Cl)Cn2cncn2)CC1` (stereo not shown) [Compound I-9], for which the MIC with Candida albicans was 4 µg/mL (≈ 10.4 µM); with Trichophyton mentagr., 8 µg/mL (≈ 20.7 µM); against Aspergillus fumigatus, 16 µg/mL (≈ 41.4 µM); in the experiment with Torulopsis glabrata, 16 µg/mL (≈ 41.4 µM). In addition, the “antimycotic activity compared with compounds (A) and (B)” value in experiment [1] was “better antimycotic activity than the compounds (A) and (B)”.
